Results from patent publication US20260109690A1, “HDAC6 INHIBITORS AND METHOD OF THEIR USE” (Baerenkraft Therapeutics, LLC., priority 2024, published 2026).
Like-named read-outs stand apart in the source and are kept apart here.

Tests used:
HDAC6 = molecular target: T1, HDAC6 (Homo sapiens, UniProt Q9UBN7); assay: Biochemical HDAC6 inhibitory activity assay
T1 sequence (Q9UBN7 1-1215): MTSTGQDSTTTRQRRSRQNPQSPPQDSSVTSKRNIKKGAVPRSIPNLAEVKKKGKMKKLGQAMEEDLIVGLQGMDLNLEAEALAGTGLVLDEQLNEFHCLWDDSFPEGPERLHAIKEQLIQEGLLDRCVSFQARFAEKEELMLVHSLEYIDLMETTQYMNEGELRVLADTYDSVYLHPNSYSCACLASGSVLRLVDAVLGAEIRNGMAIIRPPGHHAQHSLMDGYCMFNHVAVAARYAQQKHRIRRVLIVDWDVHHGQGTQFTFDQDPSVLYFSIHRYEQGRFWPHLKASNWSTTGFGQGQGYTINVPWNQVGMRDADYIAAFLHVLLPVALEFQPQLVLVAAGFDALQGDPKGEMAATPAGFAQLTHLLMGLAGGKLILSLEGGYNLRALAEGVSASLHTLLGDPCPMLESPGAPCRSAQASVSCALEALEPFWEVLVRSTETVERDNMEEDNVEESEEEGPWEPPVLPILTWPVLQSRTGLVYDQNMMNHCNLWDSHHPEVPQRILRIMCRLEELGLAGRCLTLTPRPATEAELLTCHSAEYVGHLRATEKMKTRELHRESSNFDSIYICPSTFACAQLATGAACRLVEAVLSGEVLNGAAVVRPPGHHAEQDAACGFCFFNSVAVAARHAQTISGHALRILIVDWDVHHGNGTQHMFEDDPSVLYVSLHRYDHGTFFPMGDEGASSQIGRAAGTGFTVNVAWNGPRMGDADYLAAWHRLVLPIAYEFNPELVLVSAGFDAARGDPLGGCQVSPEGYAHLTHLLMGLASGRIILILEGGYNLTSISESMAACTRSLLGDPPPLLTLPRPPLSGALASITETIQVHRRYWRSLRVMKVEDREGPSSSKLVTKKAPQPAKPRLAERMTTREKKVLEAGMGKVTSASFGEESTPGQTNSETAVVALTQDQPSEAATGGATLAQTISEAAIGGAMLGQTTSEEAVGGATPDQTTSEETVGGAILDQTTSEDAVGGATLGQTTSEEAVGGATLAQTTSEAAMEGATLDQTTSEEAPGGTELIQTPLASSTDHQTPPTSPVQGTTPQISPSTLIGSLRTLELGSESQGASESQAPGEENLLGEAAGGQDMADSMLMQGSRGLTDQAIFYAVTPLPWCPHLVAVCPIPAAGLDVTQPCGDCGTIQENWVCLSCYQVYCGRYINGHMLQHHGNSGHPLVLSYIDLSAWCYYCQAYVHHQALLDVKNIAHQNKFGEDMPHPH

[1] = ALS mouse model: bioanalysis of plasma, brain and CSF; assay type: in vivo, mice; details: 4-hour timepoint, after week 16
Procedure: At 16 weeks (9+7-week behavioral assessment), animals were dosed either with the vehicle or test compound and 4 hours post dosing, CSF, blood, and brain were collected for bioanalysis. Muscles (tibialis, soleus and gastrocnemius) and spinal cord were collected for histology (optional).
After completion of week 16 (9+7-week behavioral assessment), animals were dosed with the vehicle or test compound. 4 hours post dosing, CSF and blood (retro-orbitally) were collected under mild isoflurane anesthesia. Blood was centrifuged at 5000 rpm for 10 minutes at 4° C. and separated plasma was utilized for plasma drug concentration analysis. Then animals were euthanized, and brain tissue was collected. CSF, plasma and brain tissue samples from G3 and G4 were prepared for bioanalysis and compounds were extracted, and the supernatant was injected for LC-MS/MS bioanalysis. Drug concentration of compound I-8 was calculated from respective calibration curve for G3 and G4.

[2] = ALS mouse model: body weight; assay type: in vivo; details: SOD1-G93A mice, in g (unit assumed)
Procedure: Mice were weighed and randomized into different groups and age matched control groups were kept as such. Test compound I-8 was freshly formulated and administered to the respective animals of each group as per body weight. Animals in G1 and G2 were administered with vehicle. G3 and G4 group animals were dosed with compound I-8 at the dose of 15 mg/kg and 30 mg/kg respectively, per orally; Q.D. G4 animals were administered 30 mg/kg dose until day 34 and 50 mg/kg from day 35 onwards.
The body weight of each animal was recorded at the time of randomization and once in 2 days during the study period.

HDAC8 = molecular target: T2, HDAC8 (Homo sapiens, UniProt Q9BY41); assay: HDAC selectivity panel: HDAC8; assay type: biochemical
T2 sequence (Q9BY41 1-377): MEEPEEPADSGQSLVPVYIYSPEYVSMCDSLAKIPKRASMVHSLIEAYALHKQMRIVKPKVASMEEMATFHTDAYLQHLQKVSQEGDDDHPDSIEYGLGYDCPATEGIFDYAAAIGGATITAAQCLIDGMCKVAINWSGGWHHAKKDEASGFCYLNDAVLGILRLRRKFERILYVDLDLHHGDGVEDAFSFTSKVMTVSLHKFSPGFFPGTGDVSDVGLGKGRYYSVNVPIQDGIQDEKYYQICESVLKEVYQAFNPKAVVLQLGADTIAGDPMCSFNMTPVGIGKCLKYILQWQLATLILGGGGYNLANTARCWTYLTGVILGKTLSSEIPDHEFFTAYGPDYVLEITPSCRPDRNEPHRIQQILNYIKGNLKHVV

[3] = G4 50 mg/kg p.o. (30 mg/kg until day 33)

In the case of CC1CN(Cc2ccc(Nc3nccc(-c4ccc(C(=O)NO)cc4)n3)cc2F)CCO1 (racemic) [Compound I-8, 4-(2-((3-fluoro-4-((2-methylmorpholino)methyl)phenyl)amino)pyrimidin-4-yl)-N-hydroxybenzamide], the IC50 (HDAC6; 10-dose IC50 mode, in singlet, 3-fold serial dilution, test compound starting at 100 millimolar, read-out: HDAC6 IC50) is reported as 7.32 nM, the EC50 (HDAC6; 10-dose in vitro test (FIG. 1)) is reported as 7.32 nM and the “selectivity for HDAC6 compared to other HDACs” value (HDAC6; against 11 HDACs) is reported as “marked selectivity for HDAC6”. For the same molecule, the IC50 (HDAC6; read-out: HDAC6 IC50) was under 1000 nM, the “Brain drug concentration (Mean)” value ([1]; G3 15 mg/kg p.o.) was 2.34 and the “Plasma drug concentration (Mean)” value ([1]; G3 15 mg/kg p.o.) was 12.35. For the same molecule, the “Brain drug concentration (Mean)” value [1, 3] was 3.87, the “CSF drug concentration (Mean)” value [1, 3] was 2.70 and the “Plasma drug concentration (Mean)” value [1, 3] was 136.15. The Body weight ([2]; G3 15 mg/kg p.o. QD, Day 1) was 25.99 ± 0.73, the Body weight ([2]; G3 15 mg/kg p.o. QD, Day 7) was 25.97 ± 0.70 and the Body weight ([2]; G3 15 mg/kg p.o. QD, Day 13) was 26.54 ± 0.52. The Body weight ([2]; G3 15 mg/kg p.o. QD, Day 21) was 26.81 ± 0.45, the Body weight ([2]; G3 15 mg/kg p.o. QD, Day 27) was 26.51 ± 0.46 and the Body weight ([2]; G3 15 mg/kg p.o. QD, Day 35) was 26.76 ± 0.43. The Body weight ([2]; G3 15 mg/kg p.o. QD, Day 43) was 26.60 ± 0.50, the Body weight ([2]; G3 15 mg/kg p.o. QD, Day 49) was 25.47 ± 0.62 and the Body weight ([2]; G3 15 mg/kg p.o. QD, Day 52) was 24.52 ± 0.68. For the same molecule, the Body weight ([2]; G4 30 mg/kg (50 mg/kg from day 34) p.o. QD, Day 1) was 25.66 ± 0.48, the Body weight ([2]; G4 30 mg/kg (50 mg/kg from day 34) p.o. QD, Day 7) was 25.64 ± 0.40 and the Body weight ([2]; G4 30 mg/kg (50 mg/kg from day 34) p.o. QD, Day 13) was 26.14 ± 0.52. For the same molecule, the Body weight ([2]; G4 30 mg/kg (50 mg/kg from day 34) p.o. QD, Day 21) was 27.53 ± 0.60, the Body weight ([2]; G4 30 mg/kg (50 mg/kg from day 34) p.o. QD, Day 27) was 27.29 ± 0.52 and the Body weight ([2]; G4 30 mg/kg (50 mg/kg from day 34) p.o. QD, Day 35) was 26.55 ± 0.57. It also gave a Body weight ([2]; G4 30 mg/kg (50 mg/kg from day 34) p.o. QD, Day 43) of 26.04 ± 0.60, a Body weight ([2]; G4 30 mg/kg (50 mg/kg from day 34) p.o. QD, Day 49) of 24.30 ± 0.96 and a Body weight ([2]; G4 30 mg/kg (50 mg/kg from day 34) p.o. QD, Day 52 (n = 6-8)) of 24.75 ± 0.45. The IC50 (HDAC8) was 102 nM.
In the case of C[C@@H]1CN(Cc2ccc(Nc3nccc(-c4ccc(C(=O)NO)cc4)n3)cc2F)CCO1 [Compound I-16, (R)-4-(2-((3-fluoro-4-((2-methylmorpholino)methyl)phenyl)amino)pyrimidin-4-yl)-N-hydroxybenzamide], the IC50 (HDAC6; read-out: HDAC6 IC50) is reported as under 1000 nM and the IC50 (HDAC6; unit inferred, read-out: IC50 against HDAC6 (FIG. 3)) is reported as 12.4 nM.
